The values that follow come from US9023831B2, “Methods and compositions of inhibiting complement and cellular activation with Dextran Sulfate” (Novelmed Therapeutics, Inc., priority 2007, dated 2015).

In one experiment the test system is arthritic Lewis rats. Description: Joint inflammation and bone destruction in Rat-AIA (CFA-induced arthritis). The format is in vivo. The protocol: Lewis male rats were used to examine the effect of Dextran Sulfate combination with aggrastat (molecular weight 40,000 and 5,000) for the treatment of arthritis. Arthritis was induced in adult male Lewis rats (200-225 gm) by an intradermal injection of complete Freund's adjuvant (CFA) at the base of the tail on the dorsal side. The CFA (100 mg dried and heat killed Mycobacterium butyricum (Difco, Detroit, Mich.) emulsified in 10 ml sterile mineral oil) was prepared by grinding the bacteria powder with a mortar and pestle until the bacterial cell wall turned from a light beige to an eggshell white powder. The mineral oil was then slowly mixed into the bacterial cell wall using the mortar and pestle. All animals in each experiment were challenged with the same preparation of adjuvant and nearly 100% of the animals developed arthritis. Dextran Sulfate was obtained from Sigma Aldrich Corp and Aggrastat was purchased from the pharmacy. Dextran Sulfate was dissolved in aggrastat. The drug treatment started on day 10 post-immunization, the time of disease onset, and continued until sacrifice. The dose of Dextran Sulfate was 20 & 10 mg/Kg/per day per 150-200 g rat. The inflammatory response was assesed by the measurement of paw volume. Paw volume appears to be very consistent and gave slow increasing arthritis over time. Paw volumes were measured every day until sacrifice using Plethysmometer (IITC). After the sacrifice/euthanasia, limbs were removed and processed for;
a) histological evaluations: Only three animals were used per group. Sections were stained with Eosin and hematoxylin to identify various regions within the inflamed limb. Untreated controls have intact cartilage layer and the bone (Score 0) and clear synovium without pannus. Arthritic controls had no defined cartilage bone, and have pannus layer and significant inflammation (Score 5). Enbrel was used as positive control. […] We gave a score of 2.
b) Paw Swelling: Each paw was measured for water displacement using plethysmometer. Paw volume was measured every day.
Continuous treatment of Dextran Sulfate therapies from disease onset affected paw swelling in arthritic rats. All adjuvant-challenged rats developed AA between days 10-12. […] While inflammation was decreased in these treatment groups, we observed a greater effect for these drugs in prevention of bone and cartilage destruction.

For experiment [1], the system named is platelets (CD62P staining). In words: Platelet activation (CD62P flow cytometry) after tubing loop. The format is cell-based, human. To be noted: Aspirin 100 μg/ml added to NM3014 prior to tubing loop rotation. The protocol:
It was expected that platelet activation would also be inhibited. […] The inhibition of platelet activation was measured using flow cytometry following CD62P staining of activated platelets.
It was expected that platelet activation will also be inhibited. […] The inhibition of platelet activation was measured using flow cytometry following CD62P staining of activated platelets.
While platelets bear C3a receptors, it is not clear how platelets were being activated. In an effort to downregulate platelet activation, we performed an experiment in which Dextran Sulfate was utilized in combination with aspirin. […] These surprising results present Dextran Sulfate as a lead complement inhibitory drug that down regulates both complement and cellular activation in heparinized whole human blood. Shown in FIGS. 10d and 10e are results from this study.
For CD62P labeling of platelets, 100 μl of diluted blood collected from the circuits were immediately incubated with 20 μl of PE-anti-CD62P antibody (Becton Dickinson) for 20 minutes at room temperature in a polypropylene tube, Then the mixture was treated with FACS Lysing Solution as described above. The microcentrifuge tubes were centrifuged at 12000. g for 5 minutes. The platelets were washed in PBS/BSA 01%, fixed in 1% paraformaldehyde and then analyzed as described above. For double labeling to concomitantly identify the platelet population, 5 μl of FITC-anti-CD61 antibody were added for incubation together with PE-anti-CD62P antibody.
For flow cytometry measurement, the PMN (containing mainly neutrophils) and platelet populations were identified by live gating based on forward- versus side-scatter parameters and specific staining with FITC-anti-CD15 antibody and FITC-anti-CD61 antibody, respectively. The background staining was gated using isotype-matched labeled antibodies. The intensity of expression of CD11b and CD62P was represented by mean fluorescence intensity (MFI).
(In general: A flow cytometer gives signals particle by particle.)

With Enbrel [reference compound], the histological score with arthritic Lewis rats (Score 0 untreated controls, Score 5 arthritic controls) is 2. With Dextran Sulfate [Dextran Sulfate 5,000], in the experiment with arthritic Lewis rats (with Aggrastat, compared to untreated controls), the “paw swelling (paw volume, plethysmometer)” value was “decreased the inflammation”.

Take `CC(=O)Oc1ccccc1C(=O)O` [Aspirin, reference compound]: the “inhibition of NM3014 induced platelet activation” value in experiment [1] was “inhibition of platelet activation much below the control levels”; in experiment [1] (listed as aspirin), “downregulated activation of platelets much below control levels”.
